# Laboratory results taken from publication PMC12567141, “Design, Synthesis and Biological Evaluation of Pyrazolopyrimidine Derivatives as Aryl Hydrocarbon Receptor Antagonists for Colorectal Cancer Immunotherapy” (Pharmaceutics, 2025).
# Key:
# CT26 tumor = assay: In vivo therapy, CT26 syngeneic model; parameters: species or system mice
# Method: (§1) In vivo experiments were conducted using 6-week-old male immunocompetent BALB/c and C57BL/6 with 18–20 g body weight (Orient Bio Inc., Seungnam, Republic of Korea). All animal experimental procedures were maintained and used in accordance with the Guidelines for the Care and Use of Laboratory Animals of the Institute of Laboratory Animal Center, Daegu-Gyeongbuk Medical Innovation Foundation (K-MEDI hub). The animal studies were conducted after approval by the institutional reviewer board on the Ethics of Animal Experiments of the Daegu-Gyeongbuk Medical Innovation Foundation (approval number: KMEDI-24041103-01).
# (§2) Study 1: Antitumor activity of 7k alone in mice with either CT26 syngeneic model or MC38 syngeneic model. Mice were subcutaneously challenged with 5 × 10^5 either MC38 or CT26 cells. When tumor formation was detected via inspection and palpation, 7k treatment was initiated once a day for 14 days by oral gavage.
# (§3) Study 2: Antitumor activity of combination with anti-PD1 and 7k in CT26 tumor bearing mice. Mice were subcutaneously challenged with 5 × 10^5 CT26 cells. Tumor bearing mice were divided into four groups as following; Group 1: vehicle, Group 2: 10 mg/kg anti-PD1, Group 3: 10 mg/kg 7k, and Group 4: 10 mg/kg anti-PD1 + 10 mg/kg 7k. 7k was administered by oral gavage once daily. Anti-PD1 antibody (clone RPM1-14, Bio X cell, Lebanon, NH, USA) was injected intraperitoneally every 3 days for 4 doses.
# The 7k was dissolved in solution including 5% DMSO, 55% DW, and 40% PEG. Tumor size was measured with a caliper at the indicated time points, and tumor volume (mm^3) was calculated using the following formula, tumor volume (mm^3) = d2 × D/2, where d and D are the shortest and longest diameters in mm, respectively.
# [1] = Body weight during in vivo therapy; conditions: 7k-treated tumor-bearing mice during in vivo therapy
# Method: as §1, §2
# as §3, with “Anti-PD1 antibody (clone RPM1-14, Bio X cell, Lebanon, NH, USA) was injected intraperitoneally every 3 days for 4 doses.” left out
# [2] = test system: p53/p21/caspase-3 signaling pathway in MC38 and CT26 cells; assay: Western blot of apoptosis-regulating proteins; format: cell-based; conditions: 24 h
# Method: For the extraction of total protein, cells were treated with 7k for 24 h in a CO2 incubator at 37 °C and washed twice with phosphate-buffered saline (PBS). Cell pellets were lysed using radioimmunoprecipitation assay (RIPA) buffer (Thermo Fisher Scientific) containing a protease and phosphatase inhibitor cocktail kit (Thermo Fisher Scientific). The lysed cells were briefly vortexed at intervals and subsequently centrifuged at 13,000× g at 4 °C. The protein sample was quantified with the bicinchoninic acid (BCA) protein assay kit (Thermo Fisher Scientific).
# Equal amounts of proteins were loaded onto 10% sodium dodecyl sulfate polyacrylamide gel electrophoresis and transferred onto PVDF membranes (Millipore, Billerica, MA, USA). The membrane was blocked with 5% skim milk in Tris-buffered saline (TBS) containing Tween-20 (TBS-T) for an hour and probed with the respective primary antibodies in 5% BSA overnight at 4 °C. Following incubation, the membrane was probed with horseradish peroxidase (HRP)-conjugated secondary antibodies for an hour at room temperature. The membrane was washed three times with TBS-T and the signal was visualized using an enhanced chemiluminescence (ECL) detection reagent (GE Healthcare Life Sciences, Pittsburgh, PA, USA).
# The primary antibodies used were as follows: Total p53 (Santa Cruz Biotechnology, Dallas, TX, USA, working dilution 1:500), PARP (CST, Danvers, MA, USA; working dilution 1:1000), cleaved caspase3 (CST, MA, USA; working dilution 1:1000), p21 (CST, MA, USA; working dilution 1:1000), Bcl-2 (CST, MA, USA; working dilution 1:1000), AhR (Santa Cruz; working dilution 1:500), LaminB1 (CST, MA, USA; working dilution 1:2000), GAPDH (Abcam, Cambridge, UK; working dilution 1:5000) and β-actin (CST, MA, USA; dilution 1:5000). HRP-conjugated secondary antibodies used were as follows: anti-mouse (CST, MA, USA) and anti-rabbit (CST, MA, USA).
# [3] = test system: PD-L1 expression in MC38 and CT26 cancer cells; assay: PD-L1 expression by FACS in IFNγ-treated colorectal cancer cells; format: cell-based
# Method: For analysis of PD-L1 expression in colorectal cancer cells, MC38 in 24-well plates were treated with IFNγ (10 ng/mL) for 24 h and incubated with 5 and 10 μM for 24 h. Cells were collected and stained with APC-conjugated PD-L1 Ab at 4 °C for 30 min (BioLegend). After washing with FACS buffer (Biolegend) three times, the cells were analysed using Becton Dickinson LSRFortessa^TM and analyzed with FlowJo software. Isotype-matched monoclonal antibodies were used as controls. The data were analysed using Flowjo analysis software (FlowJo LLC, Ashland, OR, USA).
# MC38/Luc cells = assay: Cytotoxic T lymphocyte (CTL) assay; format: cell-based; conditions: splenocytes of treated tumour-bearing mice, effector:target 10:1, luciferase activity
# Method: Splenocytes were collected from tumour-bearing mice and stimulated with a cell activation cocktail (BioLegend) for 6 h. MC38/Luc cells as target cells were seeded in black, clear-bottomed 96-well plates (1 × 10^4 cells). After overnight incubation, splenocytes as effectors were added into wells containing target cells at an effector to target ratio of 10:1. LLC/Luc and CT26/Luc cells were used as negative target cells. Eleven hours later, luciferase activity was measured with an IVIS Lumina III instrument (PerkinElmer, Waltham, MA, USA).
# AhR = AhR antagonist screening using Tg(cyp1a:egfp) zebrafish; format: in vivo; parameters: key to AhR Antagonist Activity at 100 nM: - no inhibition; + weak; ++ mild; +++ moderate; ++++ high; +++++ very high
# Method: At 30 hpf, Tg(cyp1a:egfp) embryos were placed in a 2-mL screw-capped glass vial with five embryos per vial. Each vial contained 1 mL of E3 media (5 mM NaCl, 0.17 mM KCl, 0.33 mM CaCl2·2H2O and 0.4 mM MgCl2·6H2O, pH 7.2) and supplemented with 2 nM TCDD (1746-01-6; AccuStandard Inc., New Haven, NH, USA) dissolved in DMSO. The compounds were subsequently diluted and individually introduced into the vials, achieving a final concentration of 0.1% DMSO. The embryos were then incubated for 48 h and then embryonic EGFP expression was evaluated using a fluorescent stereomicroscope (SteREO Discovery V8; Zeiss, Oberkochen, BW, Germany). As a positive control, StemRegenin1 (72342, […] Technologies, Vancouver, BC, Canada) was employed.
# To evaluate AhR antagonistic activity, we conducted an AhR antagonist assay using transgenic zebrafish. Zebrafish have garnered significant attention as model organisms for drug discovery because they share metabolic pathways with mammals. […] Therefore, we synthesized more meta substituted phenyl derivatives. […] We also synthesized heteroaromatic derivatives including pyrimidine and pyridine at 5-position; however, their activities were decreased.
compound,measurement,setting,value
"CC(C)n1cc2nc(-c3cc(F)cc(F)c3)nc(NCCc3c[nH]c4ccccc34)c2n1 [Compound 7k, N-(2-(1H-indol-3-yl)ethyl)-5-(3,5-difluorophenyl)-2-isopropyl-2H-pyrazolo [4,3-d]pyrimidin-7-amine]",tumor growth inhibition (TGI),"CT26 tumor; CT26 model, combination study, 7k 10 mg/kg oral daily 14 days, anti-PD1 10 mg/kg i.p. every 3 days x4",49%
same,tumor weight,"CT26 tumor; CT26 tumor bearing mice, vs vehicle-treated mice (Figure S4)",significantly lower
same,tumor growth inhibition (TGI),"CT26 tumor; CT26 tumor-bearing mice, single agent, 10 mg/kg oral once a day for 14 days",33%
same,body weight,[1],No abnormal reduction in body weight
same,Bcl-2 expression,[2],downregulation of Bcl-2
same,cleaved poly (ADP-ribose) polymerase and cleaved caspase 3,[2],upregulation of cleaved poly (ADP-ribose) polymerase and cleaved caspase 3
same,p21 expression,[2],increase in p21
same,p53 expression,[2],upregulation of p53
same,PD-L1 expression,[3],dose-dependent downregulation of PD-L1 expression
same,CTL-mediated killing activity against MC38-luc cells,MC38/Luc cells,minimal killing activity
same,"AhR antagonistic activity in zebrafish, in words","AhR; Tg(cyp1a:egfp) zebrafish, EGFP readout",significant antagonistic activity against AhR
same,AhR Antagonist Activity at 100 nM,"AhR; extent of GFP reduction in Tg(cyp1a:egfp) zebrafish compared to the TCDD (2 nM) control, 100 nM, 48 h",+++++
